Patent US20090012069A1, “Novel Antidiabetic Compounds” (priority 2004, published 2009)

Columns and labels:
hPPAR α = target: T1, hPPAR α (Homo sapiens, UniProt Q07869); test: In vitro hPPAR alpha activity (in-house protocol); assay type: cell-based; conditions: read-out: EC50 (PPAR alpha)
T1 sequence (Q07869 1-468): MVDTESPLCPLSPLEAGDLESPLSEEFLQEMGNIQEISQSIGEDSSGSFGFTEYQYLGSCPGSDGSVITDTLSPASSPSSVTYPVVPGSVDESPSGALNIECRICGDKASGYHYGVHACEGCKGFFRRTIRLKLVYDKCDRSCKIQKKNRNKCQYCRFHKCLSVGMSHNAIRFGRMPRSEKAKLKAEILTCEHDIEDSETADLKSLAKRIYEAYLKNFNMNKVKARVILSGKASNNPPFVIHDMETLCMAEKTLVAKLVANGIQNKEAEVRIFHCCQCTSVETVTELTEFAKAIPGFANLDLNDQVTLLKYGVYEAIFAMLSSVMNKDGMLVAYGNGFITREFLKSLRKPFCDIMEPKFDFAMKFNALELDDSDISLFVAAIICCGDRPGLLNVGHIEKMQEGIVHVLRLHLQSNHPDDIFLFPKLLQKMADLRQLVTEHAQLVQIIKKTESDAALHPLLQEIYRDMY
Method: (§1) In vitro hPPAR α & hPPARγ activities were determined as per in-house protocols and the results of representative compounds are provided below as a proof of the efficacies of the novel class of compounds disclosed above.

hPPARγ = target: T2, hPPARγ (Homo sapiens, UniProt P37231); test: In vitro hPPAR gamma activity (in-house protocol); assay type: cell-based; conditions: read-out: EC50 (PPAR gamma)
T2 sequence (P37231 1-505): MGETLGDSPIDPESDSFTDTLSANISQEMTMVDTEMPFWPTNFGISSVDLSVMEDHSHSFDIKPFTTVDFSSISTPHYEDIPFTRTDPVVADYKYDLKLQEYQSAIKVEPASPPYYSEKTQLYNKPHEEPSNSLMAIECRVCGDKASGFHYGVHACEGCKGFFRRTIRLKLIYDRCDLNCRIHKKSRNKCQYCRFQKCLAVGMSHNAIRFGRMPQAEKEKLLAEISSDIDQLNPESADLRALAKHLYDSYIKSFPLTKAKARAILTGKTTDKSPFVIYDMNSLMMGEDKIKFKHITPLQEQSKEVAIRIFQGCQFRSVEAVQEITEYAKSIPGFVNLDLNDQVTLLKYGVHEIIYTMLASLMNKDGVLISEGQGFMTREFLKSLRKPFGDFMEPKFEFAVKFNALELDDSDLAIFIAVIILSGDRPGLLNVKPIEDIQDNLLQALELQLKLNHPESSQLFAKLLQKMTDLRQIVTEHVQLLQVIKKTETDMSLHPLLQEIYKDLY
Method: as §1

Swiss albino mice = test: Serum triglyceride lowering activity in Swiss albino mice; assay type: in vivo; conditions: male Swiss albino mice, 10 mg/kg/day orally for 6 days, serum 1 hour after dose on 6th day, fed state
Method: i) Serum Triglyceride and Total Cholesterol Lowering Activity in Swiss Albino Mice:
Male Swiss albino mice (SAM) were bred in Zydus animal house. All these animals were maintained under 12 hour light and dark cycle at 25±1° C. Animals were given standard laboratory chow (NIN, Hyderabad, India) and water ad libitum. SAM of 20-30 g body weight range was used. The protocol approved by Institutional Animal Ethics Committee is being used.
The test compounds were administered orally to Swiss albino mice at 0.001 to 50 mg/kg/day dose for 6 days. The compound was administered after suspending it in 0.25% CMC or dissolving it in water, when compound is water-soluble. Control mice were treated with vehicle (0.25% of Carboxymethyl cellulose; dose 10 ml/kg).
The blood samples were collected on 0th day and in fed state 1 hour after drug administration on 6th day of the treatment. The blood was collected in non heparinised capillary and the serum was analyzed for triglyceride and total cholesterol (Wieland, O. Methods of Enzymatic analysis. Bergermeyer, H., O., Ed., 1963. 211-214; Trinder, P. Ann. Clin. Biochem. 1969. 6: 24-27). Measurement of serum triglyceride and total cholesterol was done using commercial kits (Zydus-Cadila, Pathline, Ahmedabad, India).
(§2) Percentage reduction in triglycerides/total cholesterol were calculated according to the formula:
[formula] • OC=Zero day control group value OT=Zero day treated group value • TC=Test day control group TT=Test day treated group

[1] = test system: Hamster of Syrian golden stain; test: Serum triglyceride lowering activity in HF-HC diet fed Hamster of Syrian golden stain; assay type: in vivo; conditions: HF-HC diet hamsters, 3 mg/kg/day oral gavage, non-fasted serum on day 14, 1 hr after dose
Description: ii) Serum triglyceride and total cholesterol lowering activity in Hamster of Syrian golden stain:
Male and Female Hamster of Syrian golden stain were bred in Zydus animal house. All these animals were maintained under 12-hour light and dark cycle at 22±3 degree C. The protocol approved by Institutional Animal Ethics Committee is being used. Animals of 3-12 weeks age (80-150 gm body weight) were taken for study. Near the end of the acclimatization period, animals judged to be suitable for testing will bee weighed. […] Other animals were put on HF-HC (High fat and high cholesterol) diet for 14 days.
Each animal received a single dose of ZY compounds at 0.001 to 50 mg/kg/ as a carbomethoxy cellulose or polyethylene glycol in the evening administered as an oral gavage daily for 15 days. On day 14, after 1 hr of dose administration, non-fasted blood samples were collected in non heparinized capillary from animals for determination of total cholesterol (TC), triglyceride (TG) (Wieland, O. Methods of Enzymatic analysis. Bergermeyer, H., O., Ed., 1963. 211-214; Trinder, P. Ann. Clin. Biochem. 1969. 6: 24-27). Measurement of serum triglyceride and total cholesterol was done using commercial kits (Pointe Scientific.Inc.USA.) And on day 14 night all animals will be kept for fasting for 12-16 hours. On day 15, after 1 hour of dose administration fasted blood samples will be collected from animals for determination of high density lipoprotein (HDL), and low density lipoprotein (LDL) in serum. The animals will then be euthanized by carbon-dioxide asphyxia (and cervical dislocation, if necessary) and heart, kidney and liver will be resected and weighed.
as §2
Percentage reduction(%)=(TT−TC)/TC*100
TC=Test day control group TT=Test day treated group.

Row | Structure (SMILES) | EC50 (hPPAR α) [nM] | EC50 (hPPARγ) [nM] | % Triglyceride lowering (Swiss albino mice) [%] | % Triglyceride lowering [1] [%]
1 | Cc1ccc(-c2nc(CCOc3ccc(C4COC(C)(C(=O)O)OC4)cc3)c(C)o2)cc1 (stereo not drawn) [Example 100, 2-Methyl-5-trans-{4-[2-(5-methyl-2-p-tolyl-oxazol-4-yl)-ethoxy]-phenyl}-[1,3]dioxane-2-carboxylic acid] | – | – | 44 | –
2 | CC1(C(=O)O)OCC(c2ccc(OCCc3ccc(OS(C)(=O)=O)cc3)cc2)CO1 (stereo not drawn) [Example 96, 5-cis-{4-[2-(4-Methanesulfonyloxy-phenyl)-ethoxy]-phenyl}-2-methyl-[1,3]dioxane-2-carboxylic acid] | – | – | – | 41
3 | CC1(C(=O)O)OCC(c2ccc(OCCOc3ccc(Oc4ccccc4)cc3)cc2)CO1 (stereo not drawn) [Example 106, 2-Methyl-5-cis-{4-[2-(4-phenoxy-phenoxy)-ethoxy]-phenyl}-[1,3]dioxane-2-carboxylic acid] | – | – | – | 50

Further lines, with some results ahead:

Row | EC50 (hPPAR α) [nM] | EC50 (hPPARγ) [nM] | Structure (SMILES) | % Triglyceride lowering (Swiss albino mice) [%] | % Triglyceride lowering [1] [%]
4 | 600 | 19.8 | CC1(C(=O)O)OCC(Cc2ccc(OCCn3ccc4ccccc43)cc2)CO1 (stereo not drawn) [Example 70, 5-cis-[4-(2-Indol-1-yl-ethoxy)-benzyl]-2-methyl-[1,3]dioxane-1-carboxylic acid] | – | –
5 | 1090 | 96 | Cc1oc(-c2ccccc2)nc1CCOc1ccc(CC2COC(C)(C(=O)O)OC2)cc1 (stereo not drawn) [Example 61, 2-Methyl-5-{4-[2-(5-methyl-2-phenyl-oxazol-4-yl)-ethoxy]-benzyl}-[1,3]dioxane-2-carboxylic acid] | 23 | 30
6 | 72 | 15 | Cn1c(COc2ccc(CC3COC(C)(C(=O)O)OC3)cc2)nc2ccccc2c1=O (stereo not drawn) [Example 66, 2-Methyl-5-[4-(3-methyl-4-oxo-3,4-dihydro-quinazolin-2-ylmethoxy)-benzyl]-[1,3]dioxane-2-carboxylic acid] | 40 | –
